The source made the active and inactive calls. The rule behind the calls is not given here. Starred links: 1 amine or outer side, 2 acyl side, 3 side chain; linkers in the order of their positions; H or OH if unused. Non-standard residues stand in square brackets, D forms with d. Residues, ends and D or L forms follow the SMILES beside them. *: point of attachment. X2 = O=C(O)c1cc(N*)ccc1-c1c2ccc(=O)cc-2oc2cc(O)ccc12; Pyrrolidine(2S-propanoyl) = CCC(=O)[C@@H]1CCCN1*; Biotin = O=C1N[C@H]2[C@H](CS[C@H]2CCCCC(=O)*)N1; X3 = C/C(=C\CCCc1cn(CCCN[*:1])nn1)C(=O)[*:2]; NMeI = CC[C@H](C)[C@H](NC)C(=O)O; PEG4 = NCCOCCOCCOCCOCCC(=O)O; NMeV = CN[C@H](C(=O)O)C(C)C; CO = O=C([*:1])[*:2]
How the values were obtained:
NCI-H522 = test: Cytotoxicity against human NCI-H522 cells assessed as growth inhibition by sulforhodamine B assay; assay type: functional
NCI-H460 = test: Cytotoxicity against human NCI-H460 cells assessed as growth inhibition by sulforhodamine B assay; assay type: functional
A549 = test: Cytotoxicity against human A549 cells assessed as growth inhibition by sulforhodamine B assay; assay type: functional
[1] = Cytotoxicity against human DMS273 cells assessed as growth inhibition by sulforhodamine B assay; assay type: functional; conditions: DMS-273
[2] = Cytotoxicity against human DMS114 cells assessed as growth inhibition by sulforhodamine B assay; assay type: functional; conditions: DMS-114
LOX IMVI = test: Cytotoxicity against human LOXIMVI cells assessed as growth inhibition by sulforhodamine B assay; assay type: functional
OVCAR-3 = test: Cytotoxicity against human OVCAR3 cells assessed as growth inhibition by sulforhodamine B assay; assay type: functional
OVCAR-4 = test: Cytotoxicity against human OVCAR4 cells assessed as growth inhibition by sulforhodamine B assay; assay type: functional
OVCAR-5 = test: Cytotoxicity against human OVCAR5 cells assessed as growth inhibition by sulforhodamine B assay; assay type: functional
OVCAR-8 = test: Cytotoxicity against human OVCAR8 cells assessed as growth inhibition by sulforhodamine B assay; assay type: functional
SK-OV-3 = test: Cytotoxicity against human SKOV3 cells assessed as growth inhibition by sulforhodamine B assay; assay type: functional
[3] = Cytotoxicity against human RXF631L cells assessed as growth inhibition by sulforhodamine B assay; assay type: functional; conditions: RXF 631
ACHN = test: Cytotoxicity against human ACHN cells assessed as growth inhibition by sulforhodamine B assay; assay type: functional
St-4 = test: Cytotoxicity against human St-4 cells assessed as growth inhibition by sulforhodamine B assay; assay type: functional
[4] = Cytotoxicity against human MKN1 cells assessed as growth inhibition by sulforhodamine B assay; assay type: functional; conditions: MKN-1
[5] = Cytotoxicity against human MKN7 cells assessed as growth inhibition by sulforhodamine B assay; assay type: functional; conditions: MKN-7
[6] = Cytotoxicity against human MKN28 cells assessed as growth inhibition by sulforhodamine B assay; assay type: functional; conditions: MKN-28
[7] = Cytotoxicity against human MKN45 cells assessed as growth inhibition by sulforhodamine B assay; assay type: functional; conditions: MKN-45
[8] = Cytotoxicity against human MKN74 cells assessed as growth inhibition by sulforhodamine B assay; assay type: functional; conditions: MKN-74
DU-145 = test: Cytotoxicity against human DU145 cells assessed as growth inhibition by sulforhodamine B assay; assay type: functional
PC-3 = test: Cytotoxicity against human PC3 cells assessed as growth inhibition by sulforhodamine B assay; assay type: functional
HeLa S3 [9] = test: Induction of Ca2+ release from endoplasmic reticulum into cytosol in human HeLaS3 cells by fura-2/AM-based spectrofluorometric analysis; assay type: functional, cell-based
HeLa [10] = test: Induction of endoplasmic reticulum stress in human HeLa cells assessed as upregulation of Bip mRNA expression at 10 uM after 6 hrs by RT-PCR analysis; assay type: functional, cell-based
HeLa [11] = test: Induction of endoplasmic reticulum stress in human HeLa cells assessed as upregulation of CHOP mRNA expression at 10 uM after 6 hrs by RT-PCR analysis; assay type: functional, cell-based
[12] = biological target: Sarcoplasmic/endoplasmic reticulum calcium ATPase 1 (Oryctolagus cuniculus) (UniProt P04191); test: Inhibition of ATPase activity of SERCA1a in rabbit sarcoplasmic reticulum vesicles measured for 3 mins by lactate dehydrogenase/pyruvate kinase coupled assay
[13] = Cytotoxicity against mouse BMDM assessed as growth inhibition after 72 hrs by MTT assay
HeLa [14] = test: Cytotoxicity against human HeLa cells assessed as growth inhibition after 72 hrs by MTT assay; assay type: functional, cell-based
HL-60 = test: Cytotoxicity against human HL60 cells assessed as growth inhibition after 72 hrs by MTT assay; assay type: functional, cell-based; conditions: HL-60, 72 h
[15] = Cytotoxicity against human HBC4 cells assessed as growth inhibition by sulforhodamine B assay; assay type: functional
[16] = Cytotoxicity against human BSY1 cells assessed as growth inhibition by sulforhodamine B assay; assay type: functional; conditions: BSY-1
[17] = Cytotoxicity against human HBC5 cells assessed as growth inhibition by sulforhodamine B assay; assay type: functional
MCF7 = test: Cytotoxicity against human MCF7 cells assessed as growth inhibition by sulforhodamine B assay; assay type: functional
MDA-MB-231 = test: Cytotoxicity against human MDA-MB-231 cells assessed as growth inhibition by sulforhodamine B assay; assay type: functional
U-251 = test: Cytotoxicity against human U251 cells assessed as growth inhibition by sulforhodamine B assay; assay type: functional
SF-268 = test: Cytotoxicity against human SF268 cells assessed as growth inhibition by sulforhodamine B assay; assay type: functional
SF-295 = test: Cytotoxicity against human SF295 cells assessed as growth inhibition by sulforhodamine B assay; assay type: functional
SF-539 = test: Cytotoxicity against human SF539 cells assessed as growth inhibition by sulforhodamine B assay; assay type: functional
SNB-75 = test: Cytotoxicity against human SNB75 cells assessed as growth inhibition by sulforhodamine B assay; assay type: functional
[18] = Cytotoxicity against human SNB78 cells assessed as growth inhibition by sulforhodamine B assay; assay type: functional; conditions: SNB-78
HCC 2998 = test: Cytotoxicity against human HCC2998 cells assessed as growth inhibition by sulforhodamine B assay; assay type: functional
KM12 = test: Cytotoxicity against human KM12 cells assessed as growth inhibition by sulforhodamine B assay; assay type: functional
HT-29 = test: Cytotoxicity against human HT-29 cells assessed as growth inhibition by sulforhodamine B assay; assay type: functional
HCT-15 = test: Cytotoxicity against human HCT15 cells assessed as growth inhibition by sulforhodamine B assay; assay type: functional
HCT-116 = test: Cytotoxicity against human HCT116 cells assessed as growth inhibition by sulforhodamine B assay; assay type: functional
NCI-H23 = test: Cytotoxicity against human NCI-H23 cells assessed as growth inhibition by sulforhodamine B assay; assay type: functional
NCI-H226 = test: Cytotoxicity against human NCI-H226 cells assessed as growth inhibition by sulforhodamine B assay; assay type: functional
HeLa S3 [19] = test: Induction of Ca2+ release from endoplasmic reticulum into cytosol in human HeLaS3 cells at 10 uM by fura-2/AM-based spectrofluorometric analysis; assay type: functional, cell-based
HeLa [20] = test: Binding affinity to SERCA in human HeLa cells at […] after 12 hrs by immunoblot analysis; assay type: cell-based
HeLa S3 [21] = test: Induction of Ca2+ release from endoplasmic reticulum into cytosol in human HeLaS3 cells at 1 uM by fura-2/AM-based spectrofluorometric analysis; assay type: functional, cell-based
HeLa [22] = test: Induction of endoplasmic reticulum stress in human HeLa cells assessed as upregulation of Bip mRNA expression at 1 uM after 6 hrs by RT-PCR analysis; assay type: functional, cell-based
HeLa [23] = test: Induction of endoplasmic reticulum stress in human HeLa cells assessed as upregulation of CHOP mRNA expression at 1 uM after 6 hrs by RT-PCR analysis; assay type: functional, cell-based
[24] = biological target: Sarcoplasmic/endoplasmic reticulum calcium ATPase 1 (Oryctolagus cuniculus) (UniProt P04191); test: Inhibition of ATPase activity of SERCA1a in rabbit sarcoplasmic reticulum vesicles at 30 uM measured for 3 mins by lactate dehydrogenase/pyruvate kinase coupled assay
HeLa [25] = test: Induction of endoplasmic reticulum stress in human HeLa cells assessed as upregulation of Bip mRNA expression at 100 uM after 6 hrs by RT-PCR analysis; assay type: functional, cell-based
[26] = Drug uptake in endoplasmic reticulum in human HeLa cells at 10 uM after 6 hrs by DsRed/DAPI dye-based fluorescence microscopic analysis; assay type: ADME, cell-based

Chain of Sarcoplasmic/endoplasmic reticulum calcium ATPase 1 (Oryctolagus cuniculus) (P04191 whole entry): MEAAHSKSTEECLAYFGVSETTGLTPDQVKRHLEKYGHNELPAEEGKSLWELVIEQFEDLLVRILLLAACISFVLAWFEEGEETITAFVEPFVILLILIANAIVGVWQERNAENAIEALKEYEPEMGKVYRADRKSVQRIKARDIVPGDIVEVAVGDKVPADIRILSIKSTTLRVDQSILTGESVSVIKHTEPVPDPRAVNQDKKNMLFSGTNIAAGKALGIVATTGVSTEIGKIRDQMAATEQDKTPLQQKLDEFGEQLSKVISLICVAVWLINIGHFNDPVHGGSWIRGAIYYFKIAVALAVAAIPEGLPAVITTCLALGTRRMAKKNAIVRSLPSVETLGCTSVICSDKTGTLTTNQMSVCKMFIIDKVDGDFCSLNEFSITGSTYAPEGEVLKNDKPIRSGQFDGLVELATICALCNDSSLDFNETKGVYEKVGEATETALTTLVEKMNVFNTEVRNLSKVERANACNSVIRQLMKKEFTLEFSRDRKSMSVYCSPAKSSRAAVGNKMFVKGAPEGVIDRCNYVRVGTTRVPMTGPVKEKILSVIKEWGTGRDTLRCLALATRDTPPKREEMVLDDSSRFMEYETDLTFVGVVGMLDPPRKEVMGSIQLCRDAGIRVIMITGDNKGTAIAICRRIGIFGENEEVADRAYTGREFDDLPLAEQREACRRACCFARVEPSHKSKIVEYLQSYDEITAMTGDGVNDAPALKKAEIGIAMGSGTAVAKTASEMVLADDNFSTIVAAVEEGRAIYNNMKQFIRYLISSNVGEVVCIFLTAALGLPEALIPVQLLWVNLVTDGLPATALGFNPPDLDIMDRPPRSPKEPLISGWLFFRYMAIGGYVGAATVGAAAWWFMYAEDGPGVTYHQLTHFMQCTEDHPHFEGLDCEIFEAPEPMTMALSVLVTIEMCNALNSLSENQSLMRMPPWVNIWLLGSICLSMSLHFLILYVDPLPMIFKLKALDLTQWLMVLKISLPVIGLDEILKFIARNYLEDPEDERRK

C#CCCC/C=C(\C)C(=O)N(C)[C@H](C(=O)N(C)[C@H](C(=O)N(C)[C@H](C(=O)N(C)[C@H](C(=O)N1CCC[C@H]1C(=O)N1CCC[C@H]1C(=O)CC)C(C)C)C(C)C)[C@@H](C)CC)[C@@H](C)CC (HELM PEPTIDE1{[C#CCCC/C=C(\C)C(=O)[*:2]].[meI].[meI].[meV].[meV].P.[CCC(=O)[C@@H]1CCCN1[*:1]]}$$$$V2.0)
GI50 (NCI-H522): 2.4 µM | GI50 (NCI-H460): 9.55 µM | GI50 (A549): 7.24 µM | GI50 [1]: 5.5 µM | GI50 [2]: 4.9 µM | GI50 (LOX IMVI): 3.89 µM | GI50 (OVCAR-3): 6.61 µM | GI50 (OVCAR-4): 11 µM | GI50 (OVCAR-5): 11.2 µM | GI50 (OVCAR-8): 14.5 µM | GI50 (SK-OV-3): 11.2 µM | GI50 [3]: 5.89 µM | GI50 (ACHN): 13.5 µM | GI50 (St-4): 13.2 µM | GI50 [4]: 15.1 µM | GI50 [5]: 7.41 µM | GI50 [6]: 12.9 µM | GI50 [7]: 7.94 µM | GI50 [8]: 3.72 µM | GI50 (DU-145): 13.8 µM | GI50 (PC-3): 4.47 µM | Activity (HeLa S3 [9]): Dose-dependent effect | Activity (HeLa [10]): Active | Activity (HeLa [11]): Active | inhibition [12]: Dose-dependent effect | IC50 [13]: 1.96 µM | IC50 (HeLa [14]): 3.9 µM | IC50 (HL-60): 1.5 µM | GI50 [15]: 12.3 µM | GI50 [16]: 3.09 µM | GI50 [17]: 10.5 µM | GI50 (MCF7): 3.98 µM | GI50 (MDA-MB-231): 4.17 µM | GI50 (U-251): 8.32 µM | GI50 (SF-268): 5.62 µM | GI50 (SF-295): 10.7 µM | GI50 (SF-539): 10 µM | GI50 (SNB-75): 14.5 µM | GI50 [18]: 16.6 µM | GI50 (HCC 2998): 14.8 µM | GI50 (KM12): 12.9 µM | GI50 (HT-29): 4.47 µM | GI50 (HCT-15): 11.5 µM | GI50 (HCT-116): 5.13 µM | GI50 (NCI-H23): 13.8 µM | GI50 (NCI-H226): 7.24 µM

CC(=O)C1=C(O)[C@@H]2[C@H]3c4c[nH]c5cccc(c45)C[C@H]3C(C)(C)N2C1=O
Activity (HeLa S3 [19]): Active

CCC(=O)[C@@H]1CCCN1C(=O)[C@@H]1CCCN1C(=O)[C@H](C(C)C)N(C)C(=O)[C@H](C(C)C)N(C)C(=O)[C@H]([C@@H](C)CC)N(C)C(=O)[C@H]([C@@H](C)CC)N(C)C(=O)/C(C)=C/CCCc1cn(CCCNC(=O)CCOCCOCCOCCOCCNC(=O)CCCC[C@@H]2SC[C@@H]3NC(=O)N[C@@H]32)nn1 ({Biotin-PEG4}-[X3][NMeI][NMeI][NMeV][NMeV]P-{Pyrrolidine(2S-propanoyl)})
Activity (HeLa [20]): Active

C/C=C(/C)C(=O)O[C@H]1C(C)=C2[C@H]([C@@H]1OC(=O)CCCCCCC)[C@@](C)(OC(C)=O)C[C@H](OC(=O)CCC)[C@@]1(O)[C@H]2OC(=O)[C@@]1(C)O
Activity (HeLa S3 [21]): Active | Activity (HeLa [22]): Active | Activity (HeLa [23]): Active | inhibition [24]: Active

CCC(=O)[C@@H]1CCCN1C(=O)[C@@H]1CCCN1C(=O)[C@H](C(C)C)N(C)C(=O)[C@H](C(C)C)N(C)C(=O)[C@H]([C@@H](C)CC)N(C)C(=O)[C@H]([C@@H](C)CC)N(C)C(=O)/C(C)=C/CCCc1cn(CCCNC(=O)Nc2ccc(-c3c4ccc(=O)cc-4oc4cc(O)ccc34)c(C(=O)O)c2)nn1 ({X2-CO}-[X3][NMeI][NMeI][NMeV][NMeV]P-{Pyrrolidine(2S-propanoyl)})
Activity (HeLa [25]): Active | Drug uptake [26]: Active

C#CCCC/C=C(\C)C(=O)N(C)[C@H](C(=O)N(C)[C@H](C(=O)N(C)[C@H](C(=O)N(C)[C@H](C(=O)N1CCC[C@H]1C(=O)N1CCC[C@H]1/C(CC)=N/OCC(=O)NCCCCCNC(=S)Nc1ccc(-c2c3ccc(=O)cc-3oc3cc(O)ccc23)c(C(=O)O)c1)C(C)C)C(C)C)[C@@H](C)CC)[C@@H](C)CC
Activity (HeLa [25]): inactive
